“Also recorded” adds a separate entry of the source.
Assays:
A549 = assay: MTT cytotoxicity evaluation against A549 cells; assay type: cell-based, human; settings: for IC50: Homo sapiens, A549, 48 h, 48 hours
Method: (§1) A549 (human lung cancer cells) were obtained from the American Type Culture Collection (ATCC) and used. The cells were cultured in a medium containing 10% FBS, 1% penicillin (10,000 units/mL), and streptomycin (10 mg/mL), or in Dulbecco's Modified Eagle's Medium (DMEM), at 37° C. under 5% CO2 conditions.
To measure cytotoxicity, an MTT assay was used. Specifically, A549 cells cultured according to Experimental Example 1 were seeded into a 96-well plate at a density of 2.5×10^4 cells/mL in 100 μL, and incubated for 24 hours. Thereafter, the cells were treated with either the compounds prepared according to Examples 1 to 27 or, as comparative agents, decursin or docetaxel. The prepared compounds and decursin were each administered to the A549 cell line at concentrations of 0 μM (untreated), 12.5 μM, 25 μM, 50 μM, 100 μM, and 200 μM, while docetaxel was administered at concentrations of 0 nM (untreated), 0.1 nM, 1 nM, 10 nM, 100 nM, and 1,000 nM, followed by incubation for an additional 48 hours. Then, 20 μL of MTT solution was added (Method 1). Alternatively, the compounds prepared according to Examples 28 to 30, the compound of Example 5 as a reference compound or, as comparative agents, decursin or docetaxel, were used. The prepared compounds, the compound of Example 5, and decursin were each administered at concentrations of 0 μM (untreated), 3.125 μM, 6.25 μM, 12.5 μM, 25 μM, and 50 μM, while docetaxel was administered at concentrations of 0 nM (untreated), 0.6 nM, 1.25 nM, 2.5 nM, 5 nM, and 10 nM, and treated in the same manner as described in Method 1 (Method 2). The cells treated with MTT solution were incubated for 2 hours, the medium was removed, and the formazan blue crystals formed by the cells were treated with an MTT lysis buffer, followed by incubation in a cell incubator for 24 hours. The MTT lysis buffer was prepared by mixing N,N-dimethylformamide with water in a 1:1 ratio to give a solution containing 20% SIDS (sodium dodecyl sulfate) at the final concentration. The optical density at 590 nm was measured using a microplate reader (FIGS. 1a to 1d). Based on the measured values, the cytotoxicity (IC50) against A549 was calculated, and the results are disclosed in Table 1 together with the structural formulae.

A549 cells = assay: Co-administration with gefitinib, MTT cell viability and synergy score in A549 cells; assay type: cell-based, human; settings: for cytotoxicity against A549 on co-administration with gefitinib: gefitinib 1.25-20 μM plus compound 6.25-100 μM, compared with decursin plus gefitinib, FIG. 2
Method: as §1
Nevertheless, the compound of Example 5, when used as a single agent, was somewhat limited in its efficacy, and therefore its potential as a co-administration agent with existing non-small cell lung cancer therapeutic agents was examined. To this end, gefitinib (Iressa) was selected, and the compound of Example 5, together with decursin for comparison, was co-administered to A549 cells, and the cytotoxicity thereof was measured. To further evaluate dose dependency, gefitinib was administered at concentrations of 0 μM (untreated), 1.25 μM, 2.5 μM, 5 μM, 10 μM, and 20 μM, in combination with either decursin or the […], each administered at concentrations of 0 μM (untreated), 6.25 μM, 12.5 μM, 25 μM, 50 μM, and 100 μM. The relative cell viability was measured by setting the viability of the untreated group, i.e., cells not treated with either gefitinib or decursin/decursin derivative, to 100%, and the results are shown in FIG. 2. Cell viability was determined using an MTT assay. […] In particular, as the concentration of the decursin derivative increased to 12.5 μM or higher, the difference in cell-killing effect became more pronounced.
Furthermore, the synergy score of the cytotoxicity of the combination of gefitinib with decursin or with the decursin derivative compound of Example 5 against A549 cells was calculated using the Synergyfinder webtool, and the results are shown in FIG. 3. A calculated synergy score of 10 or more was considered to indicate a synergistic effect, a score between −10 and 10 was considered to indicate an additive effect, and a score below −10 was considered to indicate an antagonistic effect.

[1] = Method 2 (marked *): 3.125-50 μM

SMILES	IC50 (A549; Method 1: 12.5-200 μM)	IC50 (A549; [1])	also measured
CC1(C)Oc2cc3oc(=O)ccc3cc2C[C@@H]1OC(=O)/C=C/c1ccoc1 [Example 5, (S,E)-2,2-dimethyl-8-oxo-2,3,4,8-tetrahydropyrano[3,2-g]chromen-3-yl 3-(furan-3-yl)acrylate]	30.3 µM	7.88 µM	cell-killing effect against human lung cancer cell line A549 compared to decursin (A549; single agent): superior cell-killing effect; also recorded: most potent effect; synergy score of cytotoxicity against A549 (A549 cells; 10 μM gefitinib plus 6.25 μM compound, Synergyfinder webtool, score of 10 or more = synergistic): ~15; cytotoxicity against A549 on co-administration with gefitinib (A549 cells): superior to that observed with co-administration of decursin and gefitinib; cytotoxicity against A549 on co-administration with gefitinib (A549 cells; listed as compound of Formula 2): synergistic cell-killing effect
CN(C)c1ccc(/C=C/C(=O)O[C@H]2Cc3cc4ccc(=O)oc4cc3OC2(C)C)cc1 [Example 30, (S,E)-2,2-dimethyl-8-oxo-2,3,4,8-tetrahydropyrano[3,2-g]chromen-3-yl 3-(4-(dimethylamino)phenyl)acrylate]		151 µM	
CC1(C)Oc2cc3oc(=O)ccc3cc2[C@@H](NC(=O)/C=C/c2ccc(C(F)(F)F)cc2)[C@@H]1O [Example 27, (E)-N-((3S,4R)-3-hydroxy-2,2-dimethyl-8-oxo-2,3,4,8-tetrahydropyrano[3,2-g]chromen-4-yl)-3-(4-(trifluoromethyl)phenyl)acrylamide]	73.4 µM		
CC1(C)Oc2cc3oc(=O)ccc3cc2C[C@@H]1OC(=O)CCc1ccoc1 [Example 28, (S)-2,2-dimethyl-8-oxo-2,3,4,8-tetrahydropyrano[3,2-g]chromen-3-yl 3-(furan-3-yl)propanoate]		96.1 µM	
CC1(C)Oc2cc3oc(=O)ccc3cc2[C@@H](NC(=O)/C=C/c2ccoc2)[C@@H]1O [Example 23, (E)-3-(furan-3-yl)-N-((3S,4R)-3-hydroxy-2,2-dimethyl-8-oxo-2,3,4,8-tetrahydropyrano[3,2-g]chromen-4-yl)acrylamide]	> 200 µM		
C/C(=C\c1ccccc1)C(=O)O[C@H]1Cc2cc3ccc(=O)oc3cc2OC1(C)C [Example 4, (S,E)-2,2-dimethyl-8-oxo-2,3,4,8-tetrahydropyrano[3,2-g]chromen-3-yl 2-methyl-3-phenylacrylate]	80.7 µM		

Reference: US20260232625A1, “NOVEL DECURSIN DERIVATIVE AND USE THEREOF FOR PREVENTING OR TREATING NON-SMALL CELL LUNG CANCER” (JAEIN R&P INC., priority 2023, published 2026)
